Residues, ends and D or L forms follow the SMILES beside them. *: point of attachment. Cbz = O=C(OCc1ccccc1)*

Consider `C1=Cc2cc3ccccc3cc2CS1`, for which the melting point (as a rule, the temperature of the solid-liquid transition) was determined as 84 °C.
For `Cc1ccc(C(C#N)(Cc2c[nH]cn2)c2ccccc2)cc1` (configuration not stated) the value was 188 to 193 °C.
For `CC(C)c1ccc(Cn2nnnc2-c2ccc(OC(=O)C(C)(C)C)cc2)cc1` the value was 111 to 113 °C.
Turning to `COc1ccc2c(c1)CN(C(C)=O)N=C2Cc1c(Cl)cncc1Cl`, the melting point fell in the range of 186 to 188 °C.
For `COc1ccc(-c2cc(Sc3ccc([N+](=O)[O-])cc3[N+](=O)[O-])sc2-c2ccc(OC)cc2)cc1` the value was 143 to 145 °C; for `CCOC(=O)CN1CCN(c2ccccc2[N+](=O)[O-])CC1`, 122 °C; for `COc1cc(Nc2nccc(-c3ccc(N4CCN[C@@H](C)C4)nc3)n2)cc(OC)c1OC`, 139 to 140 °C.
For `Cc1cc(-n2ccnc2)c2cccc(OCc3c(Cl)ccc(S(=O)(=O)N4CCC[C@H]4C(=O)NCCCN(C)C(=O)OC(C)(C)C)c3Cl)c2n1` the value was 75 °C; for `CC(=O)C(=Cc1ccc2c(c1)OCO2)C(C)=O`, 79 to 80 °C; for `CCCCCCC(=N)NC(=S)Nc1ccc(Br)cc1Br`, 86 to 88 °C.
For `Cc1oc2ccccc2c1OC(C)(C)C#N` the value was 53 to 55 °C; for `COc1ccc(-c2c(NC(=O)Nc3ccc(F)cc3F)cnc3ccc(Cl)cc23)c(O)c1OC`, 218 to 220 °C; for `O=S(=O)(c1ccc(Cl)s1)N(CCO)CCO`, 69 °C.
In the case of `O=C(CC1CCCCC1=O)c1ccc(-c2ccccc2)cc1` (configuration not stated), the melting point was 108 to 112 °C.
For `CCCCn1c(=O)cc(O)c2ccccc21` the value was 211 to 213 °C; for `Cc1cccc(-c2nc3cccnn3c2-c2ccnc(N[C@@H](C)c3ccccc3)c2)c1`, 154 to 155 °C; for `CN(c1cccc2cc(C3=NCC4(CCN(CC#N)CC4)S3)[nH]c12)S(=O)(=O)c1cccs1`, 211 °C.
For `CC(C)(C)c1ccc(/C=N/OCCOc2ccc(C(=O)O)c(OC(=O)c3ccc(C(F)(F)F)cc3)c2)cc1` the value was 146 to 148 °C; for `C#Cc1cnc2ccc(OC(SC)C(=O)NC(C)(C#N)CO)cc2c1` (configuration not stated), 78 to 80 °C; for `CN1C(=O)CC(c2c(-c3ccc[nH]3)[nH]c3ccc(O)cc23)C1=O` (configuration not stated), 148 to 154 °C.
For `COC(=O)CCn1c(=O)n(CCN2CCN(c3ccccc3OC)CC2)c(=O)c2c(C)scc21` the value was 127 to 128 °C.
With `COc1cc(-c2nn(Cc3ccccc3)c(=O)c3ccccc23)ccc1O`, the melting point is 197 to 200 °C.
In turn, `O=C(NC1CCCc2ccccc21)c1ccc2n1Cc1ccccc1N(C(=O)CSc1ccc(Br)cc1)C2` (configuration not stated) returned a melting point of 163 to 165 °C.
For `NC(=O)CCc1cccc(-c2nc(=O)c3ccccc3s2)n1` the value was 236 °C; for `CCOC(=O)c1cnc2onc(C)c2c1N(CS(=O)(=O)c1ccc(OC)cc1)c1cccnc1`, 128 to 130 °C; for `COC(=O)c1c[nH]c(C=O)c1`, 97 to 99 °C.
For `COc1cc(C=CC2=NN=C(C)Cc3cc(OC)c(OC)cc32)ccc1O` the value was 192 to 193 °C; for `O=C(CCN1CCCC1)Nc1ccc2nc3ccc(NC(=O)CCN4CCCC4)cc3c(Cl)c2c1`, over 320 °C; for `Cc1ccccc1N(CN1C(=O)CSC1=O)C(=O)CCl`, 133 to 136 °C.
In turn, `CC(C)(CO)Nc1nc(-c2ccccc2)nc2ccccc12` came in with a melting point of 136 to 138 °C.
`O=c1cc2c(nn1-c1ccc(Cl)cc1)-c1cc(Br)sc1SCC2` yielded a melting point of 148 to 151 °C.
For `CCCCNS(=O)(=O)CC(O)C(O)C(CC1CCCCC1)NC(=O)CCC(C)C` (configuration not stated) the value was 88 to 92 °C.
`CCCOc1cc([N+](=O)[O-])ccc1N` showed a melting point of 59 to 61 °C.
For `Oc1ccc(C(F)(F)F)cc1C=S` the value was 50 to 52 °C; for `COc1cn(-c2ccc(-n3cccn3)cc2F)nc(C(C)=O)c1=O`, 159 to 161 °C.
For `CCOc1nn(Cc2ccc(OCCc3nc(-c4ccccc4)oc3C)cc2)cc1CCC(=O)O` the value was 142 to 143 °C; for `O=[N+]([O-])c1ccc(N(CCO)CCO)cc1F`, 99 to 101 °C; for `COc1ccc2[nH]c(C(=O)N3CC(CCl)c4c3cc(O)c3ncccc43)cc2c1` (configuration not stated), 224 to 227 °C.
For `CC(NC(=O)OC(C)(C)C)C(=O)NC(C)C(=O)Nc1ccc2c(Cl)c(OCCBr)oc(=O)c2c1` (configuration not stated) the value was 147 to 151 °C; for `CNC(=O)c1ccc(N2CCN(Cc3cc4c(c(OC)c3)OC(C)C(=O)N4)CC2)c(F)c1` (configuration not stated), 241 to 244 °C.
Take `COc1ccc(S(=O)(=O)Nc2ccc(Cl)cc2Cc2c(F)cccc2F)cc1OC`: the melting point amounted to 144 °C.
Compound `CCCCn1c(=O)c(NC(=O)Nc2cc(Cc3cc[nH]n3)ccc2C(C)(C)C)c(-c2cccc(OCCCO)c2)c2cccnc21` returned a melting point of 116 to 119 °C.
On to `COc1ccc(C(=O)c2ccccc2)cc1C(=O)O`, for which the melting point came out at 150 °C.
For `C#CCn1c(=O)c2c(nc(C#Cc3ccc(OC)c(OC)c3)n2C)n(CC)c1=O` the value was 222 °C; for `COc1ccc(-c2cc(C(=O)C(F)(F)F)[nH]c2-c2ccc(OC)cc2)cc1`, 185 to 186 °C.
For `CC(CSc1nn(-c2ccccc2)c2c1CCC2)C(=O)O` (configuration not stated) the value was 84 to 85 °C.
On to `CCOc1ccc(C2CC(C(C)(C)C)=NN2c2ccc(C(=O)O)cc2)cc1` (configuration not stated), for which the melting point came to 160 °C.
`COc1c(C#N)c(C)cc2c1C(C)(C)CCC2(C)C` gave a melting point of 71 to 73 °C.
For `COc1ccnc(CCc2nc3cc(-c4ccc(O)cc4)cnc3[nH]2)c1` the value was 206 to 208 °C; for `OCc1cc2c3ccccc3ncn2n1`, 132 to 133 °C.
Compound `COc1ccc(C(O)c2ccc(C(=O)N(C3CCCC3)C3CCCC3)cc2)cc1OC` (configuration not stated) returned a melting point of 137 to 138 °C.
For `CC(C)(C)OC(=O)N[C@@H](Cc1ccc(-c2ccccc2)cc1)C(=O)OCc1ccccc1` the value was 98.3 to 100 °C; for `COC(=O)C(Cc1c[nH]c2ccccc12)NC(=O)C(CCC(N)=O)NC(=O)OCc1ccccc1` (stereo not drawn) (Cbz-Gln-Trp-OMe; configuration not given here), 197 to 198 °C; for `CC(C)CNC(=O)C(C)NC(=O)OCc1ccccc1` (configuration not stated), 109 to 111 °C.
`CONS(=O)(=O)c1ccc(Cl)c(Cl)c1` gave a melting point of 146 to 147 °C.
For `CCOC(=O)c1cc(Cl)c(Cl)c(-c2cc(C)no2)c1C` the value was 86 to 88 °C.
For `CC(C)c1nc(-c2cccs2)cc(-c2ccc(F)cc2)c1CO` the value was 151 to 153 °C; for `Oc1cccc2c1SCCC2`, 86 to 88 °C; for `O=C(Nc1cccc2c(-n3ccnc3)c(Br)cnc12)c1c(-n2ccnc2)cccc1-n1ccnc1`, 175 to 185 °C.
For `CNC(=NCCS(=O)Cc1nccs1)NC#N` (configuration not stated) the value was 110 °C.
`COc1cc(OC)cc(C(=O)P2(=O)Oc3ccccc3-c3ccccc32)c1` (configuration not stated) gave a melting point of 140 to 142 °C.
For `O=[N+]([O-])c1cccnc1Cc1ccccc1` the value was 72 °C; for `CCOC(=O)c1cn(C2CC2)c2c(OC(F)F)c(F)c(F)cc2c1=O`, 224 to 226 °C.
For `N#Cc1cnc(Nc2ccc(OCCn3cnnc3)cc2)nc1-c1cccs1` the value was 228 °C.
For `COc1ccc(-c2nc(SCC(F)(F)F)[nH]c2-c2ccc(OC)cc2)cc1` the value was 119 to 120 °C.
`CCc1nc2c(N)nc3cc(OS(C)(=O)=O)ccc3c2n1CCOc1ccccc1` returned a melting point of 213 to 214 °C.
For `CC(C)c1ccc(C(=O)C2c3ccccc3Oc3ccccc32)c(C(C)C)c1OS(N)(=O)=O` the value was 180 to 181 °C; for `O=S1(=O)NCN(C2CC2)c2ccc(O)cc21`, 187 to 189 °C.
For `COc1ccc(-c2c3c(cc4ccc(O)cc24)-c2ccc(O)cc2CO3)cc1` the value was 200 to 203 °C; for `O=P(c1ccccc1)(c1ccccc1)C(O)C(O)P(=O)(c1ccccc1)c1ccccc1` (configuration not stated), 211 to 214 °C; for `Nc1nc(O)nc(Cl)n1`, 300 °C.
As for `CC(C)(C)c1cc(N)n(-c2cccc(Oc3ccccc3)c2)n1`, the melting point fell in the range of 108 to 110 °C.
For `CS(=O)(=O)c1ccc(-c2[nH]nc3c2-c2ccccc2CC3)cc1` the value was 178 to 180 °C.
As to `CCCC1=C(C(=O)OCC)C(c2cc(Cl)ccc2Cl)c2c[nH]nc2N1` (configuration not stated), the melting point was found to be 162 °C.
For `CC(=O)OC1CCC2(C)C(CCC3C4CC(C)=C(C(C)=O)C4(C)CC(=O)C32)C1` (configuration not stated) the value was 200 to 208 °C.
For `CCOC(=O)c1cccc2c3c([nH]c12)CN(CC(=O)NC(C(=O)C(F)(F)F)C(C)C)C=C3` (configuration not stated) the value was 218 to 219 °C; for `CCNCc1ccc(O)c(C(CCN(C(C)C)C(C)C)c2ccccc2)c1` (configuration not stated), 140 to 142 °C; for `O=C1NC(=O)C(=Cc2ccccc2)C(=O)N1`, over 258 °C.
For `CS(=O)(=O)OCc1cc(-c2ccc3c(c2)CCO3)nn(CC=Cc2ccc(Cl)cc2)c1=O` the value was 135 to 140 °C; for `O=C1N(O)CCC12CCOc1ccc(F)cc12` (configuration not stated), 208 to 209 °C; for `CN(C)C(=O)[C@@H]1C[C@H](C(=O)OC(C)(C)C)N[C@@H]1c1ccccc1` (racemic), 97 °C.
In the case of `Cc1nc(C2CCC(NC(=O)OCC3c4ccccc4-c4ccccc43)CC2)cs1` (configuration not stated), the melting point was 140 to 141 °C.
For `O=C(Nc1nc(O)cc(-c2ccccc2)n1)C(F)(F)F` the value was 166 to 168 °C; for `CCCCCCCC[C@H](O)C(=O)O`, 70 to 72 °C.
The compound `COc1cc2c(=O)n(CCCN3CCOCC3)c3c4ccccc4[nH]c(=O)c3c2cc1OC` yielded a melting point of 250 to 252 °C.
For `COc1ccc(-c2ccccc2)cc1[N+]([O-])=NC(=O)OC(C)C` the value was 102 to 106 °C.
For `O=C(c1ccc([N+](=O)[O-])cc1)N1CCc2cc(S(=O)(=O)n3cc(-c4ccccc4)[nH]c3=O)ccc21` the value was 245 to 246 °C.

The values above are taken from a melting point compilation (Tetko et al.; mined from patent text by program, amines drawn as free bases though some values may be those of a salt).
